What all share (format): physicochemical
One data set in a line: stability in water. Particulars: inactive enantiomer formed from recombination of retro-aldol products of hydrolysis.
A further data set can be described thus: log D of voriconazole.
A short description of data set [1]: aqueous solubility of voriconazole. Particulars: aqueous solution, pH 3, aqueous buffer.

Values after ≈ are worked out from the molar mass of the structure shown.

Broadly, the logD is the decadic logarithm of the distribution of all forms, ionised or not, between an organic phase and buffer at a given pH. A high value points to higher lipophilicity. As usually defined, the solubility is the concentration that dissolves in the medium under given conditions. Higher therefore signals a readily soluble substance.

As for `C[C@@H](c1ncncc1F)[C@](O)(Cn1cncn1)c1ccc(F)cc1F` [Voriconazole], the stability in water result in “stability in water” was “not stable in water”. The logD in the data set “log D of voriconazole” worked out at 1.8. Also, the solubility in data set [1] was 200 µg/mL (≈ 573 µM).

These data come from patent US6632803B1, “Pharmaceutical formulations containing voriconazole” (Pfizer Inc, priority 1997, dated 2003).
